Several values for one entry are separate records, joined by “and”; a condition that tells them apart may be missing. Identical values can stand only once. Toxic doses and inconclusive results are not listed.
System: BDF1 mice, P388 leukemia ip, median survival T/C
Experiment: NCI In Vivo Anticancer Drug Screen. Data for tumor model P388 Leukemia (intraperitoneal) in B6D2F1 (BDF1) mice
Conditions: endpoint: median survival time, higher = longer survival
Procedure, shortened: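 T/C = treated-group survival ÷ vehicle-control survival; tumour transplanted into mice before dosing.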

[1] = dose: 12.5 mg/kg/injection, schedule: Q01DX009 (ip), vehicle: saline
[2] = dose: 50.0 mg/kg/injection, schedule: Q01DX009 (ip), vehicle: saline with Tween-80
[3] = dose: 100.0 mg/kg/injection, schedule: Q01DX009 (ip), vehicle: saline with Tween-80
[4] = dose: 25.0 mg/kg/injection, schedule: Q01DX009 (ip), vehicle: saline
[5] = dose: 100.0 mg/kg/injection, schedule: Q04DX003 (ip), vehicle: other
[6] = dose: 200.0 mg/kg/injection, schedule: Q04DX003 (ip), vehicle: other
[7] = dose: 400.0 mg/kg/injection, schedule: Q04DX003 (ip), vehicle: other
[8] = dose: 100.0 mg/kg/injection, schedule: Q01DX001 (ip), vehicle: saline sonified
[9] = dose: 200.0 mg/kg/injection, schedule: Q01DX001 (ip), vehicle: saline sonified

Question: What does the source list for Nc1ncnc2c1ncn2C(C=O)OC(C=O)CO (configuration not stated)?
Answer: T/C (dose: 0.88 mg/kg/injection, schedule: Q01DX009 (ip), vehicle: saline): 106 % of control; T/C (dose: 1.0 mg/kg/injection, schedule: Q01DX009 (ip), vehicle: carboxymethylcellulose (CMC)): 119 % of control; T/C (dose: 1.33 mg/kg/injection, schedule: Q01DX009 (ip), vehicle: saline): 116 % of control; T/C (dose: 2.0 mg/kg/injection, schedule: Q01DX009 (ip), vehicle: saline): 119 % of control; T/C (dose: 2.5 mg/kg/injection, schedule: Q04DX003 (ip), vehicle: carboxymethylcellulose (CMC)): 113 % of control; T/C (dose: 3.3 mg/kg/injection, schedule: Q01DX009 (ip), vehicle: saline): 171 % of control; T/C (dose: 4.0 mg/kg/injection, schedule: Q01DX009 (ip), vehicle: carboxymethylcellulose (CMC)): 158 % of control; T/C (dose: 5.0 mg/kg/injection, schedule: Q01DX009 (ip), vehicle: saline): 261 % of control; T/C (dose: 5.0 mg/kg/injection, schedule: Q04DX003 (ip), vehicle: carboxymethylcellulose (CMC)): 122 % of control; T/C (dose: 5.56 mg/kg/injection, schedule: Q01DX009 (ip), vehicle: saline): 150 % of control; T/C (dose: 7.5 mg/kg/injection, schedule: Q01DX009 (ip), vehicle: saline): 152 % of control; T/C (dose: 8.0 mg/kg/injection, schedule: Q01DX009 (ip), vehicle: carboxymethylcellulose (CMC)): 97 % of control; T/C (dose: 8.33 mg/kg/injection, schedule: Q01DX009 (ip), vehicle: saline): 161 % of control; T/C (dose: 10.0 mg/kg/injection, schedule: Q04DX003 (ip), vehicle: carboxymethylcellulose (CMC)): 153 % of control; T/C [1]: 209 % of control; T/C (dose: 16.0 mg/kg/injection, schedule: Q01DX009 (ip), vehicle: carboxymethylcellulose (CMC)): 184 % of control; T/C (dose: 18.7 mg/kg/injection, schedule: Q01DX009 (ip), vehicle: saline): 152 % of control; T/C (dose: 20.0 mg/kg/injection, schedule: Q04DX003 (ip), vehicle: carboxymethylcellulose (CMC)): 160 % of control; T/C (dose: 40.0 mg/kg/injection, schedule: Q04DX003 (ip), vehicle: carboxymethylcellulose (CMC)): 188 % of control; T/C (dose: 80.0 mg/kg/injection, schedule: Q04DX003 (ip), vehicle: carboxymethylcellulose (CMC)): 179 % of control

Question: CCOC(=O)/C(C#N)=C/c1c(-c2ccccc2)nn2ccccc12 was tested. Which T/C [2] did it give?
Answer: 96 % of control

Question: What about the T/C [3] of the same compound?
Answer: 91 % of control

Question: Which T/C (dose: 0.75 mg/kg/injection, schedule: Q01DX009 (ip), vehicle: saline with Tween-80) does the source give for N=c1c2c(C(N)=O)cn(C3OC(CO)C(O)C3O)c2ncn1O (configuration not stated) here?
Answer: 122 % of control

Question: And the T/C (dose: 1.5 mg/kg/injection, schedule: Q01DX009 (ip), vehicle: saline with Tween-80)?
Answer: 154 % of control

Question: And the T/C (dose: 2.0 mg/kg/injection, schedule: Q01DX009 (ip), vehicle: saline with Tween-80)?
Answer: 180 % of control

Question: What about the T/C (dose: 2.0 mg/kg/injection, schedule: Q04DX003 (ip), vehicle: saline with Tween-80) of the same compound?
Answer: 122 % of control

Question: What about the T/C (dose: 2.9 mg/kg/injection, schedule: Q04DX003 (ip), vehicle: saline with Tween-80) of the same compound?
Answer: 160 % of control

Question: And the T/C (dose: 4.4 mg/kg/injection, schedule: Q04DX003 (ip), vehicle: saline with Tween-80)?
Answer: 117 % of control

Question: And the T/C (dose: 6.7 mg/kg/injection, schedule: Q04DX003 (ip), vehicle: saline with Tween-80)?
Answer: 166 % of control

Question: What about the T/C (dose: 10.0 mg/kg/injection, schedule: Q04DX003 (ip), vehicle: saline with Tween-80) of the same compound?
Answer: 190 % of control

Question: And the T/C (dose: 15.0 mg/kg/injection, schedule: Q04DX003 (ip), vehicle: saline with Tween-80)?
Answer: 123 % of control

Question: With N[C@H](Cc1c[nH]c2ccccc12)C(=O)O as the compound, how does the T/C (dose: 100.0 mg/kg/injection, schedule: Q01DX010 (ip), vehicle: saline) read?
Answer: 92 % of control

Question: And the T/C (dose: 200.0 mg/kg/injection, schedule: Q01DX010 (ip), vehicle: saline)?
Answer: 96 % of control

Question: What about the T/C (dose: 400.0 mg/kg/injection, schedule: Q01DX010 (ip), vehicle: saline) of the same compound?
Answer: 96 % of control

Question: What about the T/C (dose: 800.0 mg/kg/injection, schedule: Q01DX010 (ip), vehicle: saline) of the same compound?
Answer: 110 % of control

Question: For Brc1ccc(C[n+]2ccccc2)cc1, which T/C (dose: 6.25 mg/kg/injection, schedule: Q01DX009 (ip), vehicle: saline) is on record?
Answer: 91 % of control

Question: And the T/C [1]?
Answer: 87 % of control

Question: And the T/C [4]?
Answer: 95 % of control

Question: And the T/C (dose: 25.0 mg/kg/injection, schedule: Q04DX003 (ip), vehicle: saline)?
Answer: 100 % of control

Question: How did the T/C [4] turn out when O[C@]12CC=CC[C@]1(O)CC(N1CCCCC1)C2 was run?
Answer: 99 % of control

Question: And the T/C (dose: 50.0 mg/kg/injection, schedule: Q01DX009 (ip), vehicle: saline)?
Answer: 124 % of control

Question: And the T/C (dose: 100.0 mg/kg/injection, schedule: Q01DX009 (ip), vehicle: saline)?
Answer: 92 % of control

Question: How did the T/C (dose: 7.5 mg/kg/injection, schedule: Q01DX010 (ip), vehicle: saline) turn out when CNC=O was run?
Answer: 100 % of control

Question: What about the T/C (dose: 15.0 mg/kg/injection, schedule: Q01DX010 (ip), vehicle: saline) of the same compound?
Answer: 104 % of control and 109 % of control

Question: What about the T/C (dose: 30.0 mg/kg/injection, schedule: Q01DX010 (ip), vehicle: saline) of the same compound?
Answer: 104 % of control and 118 % of control

Question: What about the T/C (dose: 60.0 mg/kg/injection, schedule: Q01DX010 (ip), vehicle: saline) of the same compound?
Answer: 109 % of control and 113 % of control

Question: What about the T/C (dose: 300.0 mg/kg/injection, schedule: Q01DX010 (ip), vehicle: saline) of the same compound?
Answer: 154 % of control

Question: What about the T/C (dose: 455.0 mg/kg/injection, schedule: Q01DX010 (ip), vehicle: saline) of the same compound?
Answer: 154 % of control

Question: And the T/C (dose: 680.0 mg/kg/injection, schedule: Q01DX010 (ip), vehicle: saline)?
Answer: 91 % of control

Question: For CC(C)(C)CC(C)(C)c1c(O)cc(O)cc1Cl, which T/C (dose: 12.5 mg/kg/injection, schedule: Q01DX009 (ip), vehicle: gum acacia) is on record?
Answer: 99 % of control

Question: And the T/C (dose: 25.0 mg/kg/injection, schedule: Q01DX009 (ip), vehicle: gum acacia)?
Answer: 91 % of control

Question: What about the T/C (dose: 50.0 mg/kg/injection, schedule: Q01DX009 (ip), vehicle: gum acacia) of the same compound?
Answer: 89 % of control

Question: What does the source list for CCOC(=O)C(c1ccccc1)c1ccccc1?
Answer: T/C [5]: 100 % of control; T/C [6]: 95 % of control; T/C [7]: 90 % of control

Question: O=C1c2cc([N+](=O)[O-])ccc2-c2cc(Cl)c(Cl)cc21 was tested. Which T/C (dose: 50.0 mg/kg/injection, schedule: Q01DX001 (ip), vehicle: saline sonified) did it give?
Answer: 86 % of control

Question: And the T/C [8]?
Answer: 100 % of control

Question: And the T/C [9]?
Answer: 90 % of control

Question: O=Cc1nc2ccccc2c2ccccc12 was tested. Which T/C [8] did it give?
Answer: 100 % of control

Question: What about the T/C [9] of the same compound?
Answer: 100 % of control

Question: What about the T/C (dose: 400.0 mg/kg/injection, schedule: Q01DX001 (ip), vehicle: saline sonified) of the same compound?
Answer: 100 % of control

Question: Which T/C (dose: 0.8 micrograms/kg/injection, schedule: Q01DX009 (ip), vehicle: saline + alcohol) does the source give for C/C=C/C(=O)OC1CC(=O)N(C)c2cc(cc(OC)c2Cl)C/C(C)=C/C=CC(OC)C2(O)CC(OC(=O)N2)C(C)C2OC12C (configuration not stated) here?
Answer: 150 % of control

Question: What about the T/C (dose: 1.5 micrograms/kg/injection, schedule: Q01DX009 (ip), vehicle: saline + alcohol) of the same compound?
Answer: 150 % of control

Question: And the T/C (dose: 3.1 micrograms/kg/injection, schedule: Q01DX009 (ip), vehicle: saline + alcohol)?
Answer: 150 % of control

Question: And the T/C (dose: 6.2 micrograms/kg/injection, schedule: Q01DX009 (ip), vehicle: saline + alcohol)?
Answer: 160 % of control

Question: And the T/C (dose: 12.5 micrograms/kg/injection, schedule: Q01DX009 (ip), vehicle: saline + alcohol)?
Answer: 170 % of control

Question: And the T/C (dose: 25.0 micrograms/kg/injection, schedule: Q01DX009 (ip), vehicle: saline + alcohol)?
Answer: 173 % of control

Question: And the T/C (dose: 50.0 micrograms/kg/injection, schedule: Q01DX009 (ip), vehicle: saline + alcohol)?
Answer: 210 % of control

Question: And the T/C (dose: 100.0 micrograms/kg/injection, schedule: Q01DX009 (ip), vehicle: saline + alcohol)?
Answer: 210 % of control

Question: And the T/C (dose: 200.0 micrograms/kg/injection, schedule: Q01DX009 (ip), vehicle: saline + alcohol)?
Answer: 210 % of control

Question: With O=S1(=O)C2CCCCC2(N2CCOCC2)C1c1ccccc1 (configuration not stated) as the compound, how does the T/C [5] read?
Answer: 100 % of control

Question: And the T/C (dose: 178.0 mg/kg/injection, schedule: Q04DX003 (ip), vehicle: other)?
Answer: 109 % of control

Question: What about the T/C [6] of the same compound?
Answer: 104 % of control

Question: And the T/C (dose: 266.0 mg/kg/injection, schedule: Q04DX003 (ip), vehicle: other)?
Answer: 104 % of control

Question: What about the T/C [7] of the same compound?
Answer: 100 % of control

Question: How did the T/C [2] turn out when CCc1ccccc1NC(=O)N1CCOCC1 was run?
Answer: 94 % of control

Question: What about the T/C [3] of the same compound?
Answer: 102 % of control

Question: And the T/C (dose: 200.0 mg/kg/injection, schedule: Q01DX009 (ip), vehicle: saline with Tween-80)?
Answer: 109 % of control

Question: How did the T/C (dose: 6.25 mg/kg/injection, schedule: Q01DX009 (ip), vehicle: saline with Tween-80) turn out when O=c1[nH]ncc2[nH]cnc12 was run?
Answer: 98 % of control

Question: And the T/C (dose: 12.5 mg/kg/injection, schedule: Q01DX009 (ip), vehicle: saline with Tween-80)?
Answer: 107 % of control

Question: And the T/C (dose: 25.0 mg/kg/injection, schedule: Q01DX009 (ip), vehicle: saline with Tween-80)?
Answer: 91 % of control

Question: And the T/C [2]?
Answer: 104 % of control

Reference: PubChem BioAssay AID328 (DTP/NCI, 2004)
